Measurements reported in ChEMBL document CHEMBL5634154, “Drug repurposing and structure-based discovery of new PDE4 and PDE5 inhibitors” (Eur J Med Chem, 2023).
Structures can show the parent of a compound that is named as a salt.

Key:
[1] = molecular target: 3',5'-cyclic-AMP phosphodiesterase 4D (Homo sapiens, UniProt Q08499); test: Inhibition of his-tagged recombinant human PDE4D catalytic domain (T86 to S413 residues) expressed in Escherichia coli BL21(DE3) using [3H]-cAMP as substrate incubated for 10 mins by SPA assay
3',5'-cyclic-AMP phosphodiesterase 4D, sequence (Q08499 whole entry, the tested form may be a part): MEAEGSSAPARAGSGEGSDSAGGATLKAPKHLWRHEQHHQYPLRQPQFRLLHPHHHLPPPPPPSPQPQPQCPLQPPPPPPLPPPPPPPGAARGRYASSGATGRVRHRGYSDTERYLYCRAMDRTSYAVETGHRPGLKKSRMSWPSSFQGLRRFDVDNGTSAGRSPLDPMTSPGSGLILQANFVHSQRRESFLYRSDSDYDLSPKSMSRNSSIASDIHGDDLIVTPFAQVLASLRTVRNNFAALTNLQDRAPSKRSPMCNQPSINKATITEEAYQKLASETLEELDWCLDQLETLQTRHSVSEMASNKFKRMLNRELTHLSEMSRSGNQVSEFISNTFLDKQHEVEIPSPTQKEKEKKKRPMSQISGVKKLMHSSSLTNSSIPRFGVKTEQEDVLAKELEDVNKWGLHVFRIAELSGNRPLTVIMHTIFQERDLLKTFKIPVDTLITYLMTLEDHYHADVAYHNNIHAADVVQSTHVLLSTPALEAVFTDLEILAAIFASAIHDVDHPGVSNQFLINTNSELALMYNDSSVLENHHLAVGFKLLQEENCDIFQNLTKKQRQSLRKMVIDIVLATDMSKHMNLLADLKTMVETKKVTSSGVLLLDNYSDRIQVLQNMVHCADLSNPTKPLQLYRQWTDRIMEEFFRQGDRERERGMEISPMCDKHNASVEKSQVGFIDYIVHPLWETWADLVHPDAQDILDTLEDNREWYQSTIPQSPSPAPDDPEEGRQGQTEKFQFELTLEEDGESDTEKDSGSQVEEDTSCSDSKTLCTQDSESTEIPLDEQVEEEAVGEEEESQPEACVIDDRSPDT

[2] = molecular target: Dual 3',5'-cyclic-AMP and -GMP phosphodiesterase 11A (Homo sapiens, UniProt Q9HCR9); test: Inhibition of full-length recombinant human PDE11A using [3H]-cAMP as substrate incubated for 10 mins by SPA assay
Dual 3',5'-cyclic-AMP and -GMP phosphodiesterase 11A, sequence (Q9HCR9 whole entry): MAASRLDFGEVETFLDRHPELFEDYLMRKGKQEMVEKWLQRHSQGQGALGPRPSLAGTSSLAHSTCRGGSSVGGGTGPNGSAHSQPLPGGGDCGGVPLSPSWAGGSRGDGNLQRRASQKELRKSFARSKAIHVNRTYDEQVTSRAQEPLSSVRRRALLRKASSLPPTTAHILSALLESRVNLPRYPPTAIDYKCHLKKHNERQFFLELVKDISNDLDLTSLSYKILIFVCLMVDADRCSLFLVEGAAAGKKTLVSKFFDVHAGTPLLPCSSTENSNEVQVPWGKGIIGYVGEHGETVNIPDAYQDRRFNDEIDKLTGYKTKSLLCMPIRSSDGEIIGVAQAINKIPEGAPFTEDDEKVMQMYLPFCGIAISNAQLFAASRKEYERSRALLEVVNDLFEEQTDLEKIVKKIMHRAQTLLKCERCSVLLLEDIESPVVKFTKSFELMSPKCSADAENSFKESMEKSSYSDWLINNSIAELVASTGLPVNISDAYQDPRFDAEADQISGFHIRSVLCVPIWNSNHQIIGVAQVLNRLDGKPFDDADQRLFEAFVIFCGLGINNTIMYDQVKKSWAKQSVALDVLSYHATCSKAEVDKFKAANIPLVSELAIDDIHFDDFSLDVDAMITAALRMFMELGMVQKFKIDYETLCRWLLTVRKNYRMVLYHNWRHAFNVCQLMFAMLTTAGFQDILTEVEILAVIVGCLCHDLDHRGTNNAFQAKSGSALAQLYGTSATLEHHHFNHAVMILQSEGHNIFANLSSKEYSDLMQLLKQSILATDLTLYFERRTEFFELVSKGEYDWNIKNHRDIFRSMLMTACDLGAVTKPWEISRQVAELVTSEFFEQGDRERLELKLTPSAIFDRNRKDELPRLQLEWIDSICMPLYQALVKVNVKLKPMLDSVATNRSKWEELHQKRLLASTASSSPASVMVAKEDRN

[3] = molecular target: cGMP-inhibited 3',5'-cyclic phosphodiesterase 3A (Homo sapiens, UniProt Q14432); test: Inhibition of full-length recombinant human PDE3A using [3H]-cGMP as substrate incubated for 10 mins by SPA assay
[4] = molecular target: T1, Dual specificity calcium/calmodulin-dependent 3',5'-cyclic nucleotide phosphodiesterase 1A (Homo sapiens, UniProt P54750); test: Inhibition of full-length recombinant human PDE1A using [3H]-cGMP as substrate incubated for 10 mins by SPA assay
T1 sequence (P54750 whole entry, the tested form may be a part): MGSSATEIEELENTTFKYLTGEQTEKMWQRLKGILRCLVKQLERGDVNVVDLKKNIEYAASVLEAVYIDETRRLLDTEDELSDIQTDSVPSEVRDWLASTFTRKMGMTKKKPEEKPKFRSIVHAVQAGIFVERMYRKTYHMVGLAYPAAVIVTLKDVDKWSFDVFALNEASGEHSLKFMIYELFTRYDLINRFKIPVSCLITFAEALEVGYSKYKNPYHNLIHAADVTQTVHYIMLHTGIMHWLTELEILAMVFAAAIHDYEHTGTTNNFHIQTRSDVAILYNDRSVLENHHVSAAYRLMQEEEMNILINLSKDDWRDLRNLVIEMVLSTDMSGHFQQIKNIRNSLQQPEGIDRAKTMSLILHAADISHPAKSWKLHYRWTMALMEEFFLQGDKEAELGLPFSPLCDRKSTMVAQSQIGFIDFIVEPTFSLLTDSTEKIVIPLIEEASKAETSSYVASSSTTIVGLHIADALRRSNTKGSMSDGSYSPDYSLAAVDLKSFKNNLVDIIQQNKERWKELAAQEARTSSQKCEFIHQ

[5] = molecular target: High affinity cGMP-specific 3',5'-cyclic phosphodiesterase 9A (Homo sapiens, UniProt O76083); test: Inhibition of his-tagged recombinant human PDE9A catalytic domain (P181 to K506 residues) expressed in Escherichia coli BL21(DE3) using [3H]-cGMP as substrate incubated for 10 mins by SPA assay
High affinity cGMP-specific 3',5'-cyclic phosphodiesterase 9A, sequence (O76083 whole entry, the tested form may be a part): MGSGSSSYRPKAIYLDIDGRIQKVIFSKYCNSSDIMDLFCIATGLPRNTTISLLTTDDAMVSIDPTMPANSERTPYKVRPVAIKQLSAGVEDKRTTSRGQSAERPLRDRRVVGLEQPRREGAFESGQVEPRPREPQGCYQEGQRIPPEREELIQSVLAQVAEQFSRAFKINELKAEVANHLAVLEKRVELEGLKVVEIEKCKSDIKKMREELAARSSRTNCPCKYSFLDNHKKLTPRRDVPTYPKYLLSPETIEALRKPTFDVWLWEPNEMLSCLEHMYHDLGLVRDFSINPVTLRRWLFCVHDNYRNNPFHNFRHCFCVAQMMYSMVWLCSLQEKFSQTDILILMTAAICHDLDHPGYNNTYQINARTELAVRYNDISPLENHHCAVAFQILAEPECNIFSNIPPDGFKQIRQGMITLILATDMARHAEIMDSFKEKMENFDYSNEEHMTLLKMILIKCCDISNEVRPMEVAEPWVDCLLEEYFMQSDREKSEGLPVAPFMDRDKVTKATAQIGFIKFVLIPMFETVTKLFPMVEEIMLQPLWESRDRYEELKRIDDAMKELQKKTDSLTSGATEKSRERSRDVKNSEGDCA

[6] = molecular target: High affinity cAMP-specific and IBMX-insensitive 3',5'-cyclic phosphodiesterase 8A (Homo sapiens, UniProt O60658); test: Inhibition of full-length recombinant human PDE8A using [3H]-cAMP as substrate incubated for 10 mins by SPA assay
[7] = molecular target: T2, cGMP-dependent 3',5'-cyclic phosphodiesterase (Homo sapiens, UniProt O00408); test: Inhibition of full-length recombinant human PDE2A using [3H]-cGMP as substrate incubated for 10 mins by SPA assay
[8] = molecular target: cGMP-specific 3',5'-cyclic phosphodiesterase (Homo sapiens, UniProt O76074); test: Inhibition of his-tagged recombinant human PDE5A catalytic domain (E535 to Q860 residues) expressed in Escherichia coli BL21(DE3) using [3H]-cGMP as substrate incubated for 10 mins by SPA assay
[9] = molecular target: High affinity 3',5'-cyclic-AMP phosphodiesterase 7A (Homo sapiens, UniProt Q13946); test: Inhibition of his-tagged recombinant human PDE7A catalytic domain (S130 to S482 residues) expressed in Escherichia coli BL21(DE3) using [3H]-cAMP as substrate incubated for 10 mins by SPA assay
High affinity 3',5'-cyclic-AMP phosphodiesterase 7A, sequence (Q13946 whole entry, the tested form may be a part): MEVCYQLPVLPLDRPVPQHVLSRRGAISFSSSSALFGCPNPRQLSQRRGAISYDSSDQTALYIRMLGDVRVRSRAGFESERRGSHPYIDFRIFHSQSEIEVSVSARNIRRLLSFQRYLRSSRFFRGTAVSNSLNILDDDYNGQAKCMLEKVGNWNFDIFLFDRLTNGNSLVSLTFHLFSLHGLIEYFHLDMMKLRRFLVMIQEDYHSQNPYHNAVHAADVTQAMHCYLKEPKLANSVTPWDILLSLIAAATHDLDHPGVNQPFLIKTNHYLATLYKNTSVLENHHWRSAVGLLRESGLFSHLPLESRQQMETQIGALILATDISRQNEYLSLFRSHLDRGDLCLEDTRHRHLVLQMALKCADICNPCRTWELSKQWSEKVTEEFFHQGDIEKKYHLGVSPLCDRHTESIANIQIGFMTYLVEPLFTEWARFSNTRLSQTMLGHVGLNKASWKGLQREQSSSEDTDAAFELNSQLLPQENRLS

[10] = molecular target: cAMP and cAMP-inhibited cGMP 3',5'-cyclic phosphodiesterase 10A (Homo sapiens, UniProt Q9Y233); test: Inhibition of his-tagged recombinant human PDE10A catalytic domain (S439 to A766 residues) expressed in Escherichia coli BL21(DE3) using [3H]-cAMP as substrate incubated for 10 mins by SPA assay
cAMP and cAMP-inhibited cGMP 3',5'-cyclic phosphodiesterase 10A, sequence (Q9Y233 whole entry, the tested form may be a part): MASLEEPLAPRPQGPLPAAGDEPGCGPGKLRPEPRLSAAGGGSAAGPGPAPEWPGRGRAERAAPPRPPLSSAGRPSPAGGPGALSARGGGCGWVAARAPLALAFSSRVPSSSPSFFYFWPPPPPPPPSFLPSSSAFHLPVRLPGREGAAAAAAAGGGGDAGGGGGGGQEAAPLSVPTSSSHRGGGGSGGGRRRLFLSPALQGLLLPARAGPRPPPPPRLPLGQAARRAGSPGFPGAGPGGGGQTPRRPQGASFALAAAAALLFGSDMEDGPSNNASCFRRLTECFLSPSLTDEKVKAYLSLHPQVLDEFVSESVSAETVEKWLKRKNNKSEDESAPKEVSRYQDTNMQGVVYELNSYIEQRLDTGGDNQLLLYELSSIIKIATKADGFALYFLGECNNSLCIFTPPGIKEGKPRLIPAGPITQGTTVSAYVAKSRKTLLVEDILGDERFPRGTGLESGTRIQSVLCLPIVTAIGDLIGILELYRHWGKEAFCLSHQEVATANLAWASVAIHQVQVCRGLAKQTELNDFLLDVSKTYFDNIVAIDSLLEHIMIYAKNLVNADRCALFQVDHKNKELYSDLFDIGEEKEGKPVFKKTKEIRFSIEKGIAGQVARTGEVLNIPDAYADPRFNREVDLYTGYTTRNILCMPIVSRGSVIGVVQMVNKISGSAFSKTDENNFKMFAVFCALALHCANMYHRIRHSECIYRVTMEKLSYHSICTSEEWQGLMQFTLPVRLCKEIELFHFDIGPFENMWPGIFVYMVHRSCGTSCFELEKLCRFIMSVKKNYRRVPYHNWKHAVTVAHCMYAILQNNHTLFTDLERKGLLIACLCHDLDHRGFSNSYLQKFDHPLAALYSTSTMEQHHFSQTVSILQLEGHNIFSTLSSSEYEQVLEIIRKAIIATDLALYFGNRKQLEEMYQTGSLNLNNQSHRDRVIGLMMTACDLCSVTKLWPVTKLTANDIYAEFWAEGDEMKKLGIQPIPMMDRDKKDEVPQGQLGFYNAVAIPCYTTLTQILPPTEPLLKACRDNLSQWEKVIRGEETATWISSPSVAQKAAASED

[11] = molecular target: T2, cGMP-dependent 3',5'-cyclic phosphodiesterase; test: Inhibition of full-length recombinant human PDE2A using [3H]-cGMP as substrate at 1 uM incubated for 10 mins by SPA assay relative to control
[12] = molecular target: T1, Dual specificity calcium/calmodulin-dependent 3',5'-cyclic nucleotide phosphodiesterase 1A; test: Inhibition of full-length recombinant human PDE1A using [3H]-cGMP as substrate at 1 uM incubated for 10 mins by SPA assay relative to control
[13] = species on record: Homo sapiens; test: Selectivity index, ratio of IC50 for full-length recombinant human PDE6C using [3H]-cGMP as substrate to IC50 for his-tagged recombinant human PDE4D catalytic domain (T86 to S413 residues) expressed in Escherichia coli BL21(DE3) using [3H]-cAMP as substrate
[14] = molecular target: Cone cGMP-specific 3',5'-cyclic phosphodiesterase subunit alpha' (Homo sapiens, UniProt P51160); test: Inhibition of full-length recombinant human PDE6C using [3H]-cGMP as substrate incubated for 10 mins by SPA assay

| Structure (SMILES) | IC50 [1] | IC50 [2] | IC50 [3] | IC50 [5] | IC50 [6] | IC50 [8] | IC50 [9] | IC50 [10] | other results |
| --- | --- | --- | --- | --- | --- | --- | --- | --- | --- |
| COc1ccc2c(c1)CC[C@H]1[C@H]3CC[C@H](NCCCCCCN4C(=O)C=CC4=O)[C@@]3(C)CC[C@@H]21 | 940 nM |  |  |  |  |  |  |  |  |
| CCOc1ccn(-c2ccc(F)cc2)c(=O)c1C(=O)Nc1ccc(Oc2ccnc(N)c2Cl)c(F)c1 [BMS-777607] | 2460 nM |  |  |  |  |  |  |  |  |
| O=C(O)c1ccc2c(c1)nc(Nc1cccc(Cl)c1)c1ccncc12 [SILMITASERTIB] | 1000 nM |  |  |  |  |  |  |  |  |
| COc1ccc(CNc2nc(N(CCO)CCO)nc3c2ncn3C(C)C)cc1 | 420 nM | > 1000 nM | > 10000 nM | > 10000 nM | > 10000 nM | 230 nM | > 10000 nM | 1290 nM | IC50 [4]: > 1000 nM; IC50 [7]: > 1000 nM |
| COc1ccc(CNc2nc(N(CCO)CCO)nc3c2cnn3C(C)C)cc1 | 2250 nM | > 10000 nM | > 1000 nM | > 10000 nM | > 10000 nM | 120 nM | > 10000 nM | > 1000 nM | inhibition [11]: 67.9%; inhibition [12]: 59.6%; Ratio IC50 [13]: 1; IC50 [14]: 160 nM |
| CCOc1ccc(Cc2nccc3cc(OCC)c(OCC)cc23)cc1OCC [ETHAVERINE HYDROCHLORIDE] | 410 nM |  |  |  |  |  |  |  |  |
| COc1ccc(CNc2nc(N(CCO)CCO)nc3c2[nH]c(=O)n3C(C)C)cc1 | 1780 nM | > 10000 nM | > 10000 nM | > 10000 nM | > 10000 nM | 40 nM | > 10000 nM | > 10000 nM | IC50 [4]: > 10000 nM; IC50 [7]: > 1000 nM; Ratio IC50 [13]: 2; IC50 [14]: 90 nM |
| Cn1cc(-c2ccncc2)c(-c2ccc(OCc3ccc4ccccc4n3)cc2)n1 [MARDEPODECT] | 1740 nM |  |  |  |  |  |  |  |  |
| COc1ncc(-c2ccc3nccc(-c4ccnnc4)c3c2)cc1NS(=O)(=O)c1ccc(F)cc1F [OMIPALISIB] | 1770 nM |  |  |  |  |  |  |  |  |
